From article PMC5218480 (PLoS ONE, 2017)

Test system: MV-4-11 cells
Experiment: Gene expression microarray analysis (Affymetrix PrimeView) and GSEA
Assay type: cell-based, human
Parameters: RFU PODN (11730768_x_at) / Fold change /veh PODN (11730768_x_at) / RFU LINC00158 (11744669_a_at) / Fold change /veh LINC00158 (11744669_a_at) / RFU DUSP10 (11751237_a_at) / Fold change /veh DUSP10 (11751237_a_at) / RFU ID3 (11757404_x_at) / Fold change /veh ID3 (11757404_x_at) / RFU PLEKHG5 (11737974_s_at) / Fold change /veh PLEKHG5 (11737974_s_at) / RFU LRRC4B (11730491_at) / Fold change /veh LRRC4B (11730491_at) / RFU GIMAP4 (11747438_a_at) / Fold change /veh GIMAP4 (11747438_a_at) / RFU KRT8 (11758183_x_at) / Fold change /veh KRT8 (11758183_x_at) / RFU CNN1 (11734310_a_at) / Fold change /veh CNN1 (11734310_a_at) / RFU VPS37D (11726825_at) / Fold change /veh VPS37D (11726825_at) / RFU C10orf10 (11716522_x_at) / Fold change /veh C10orf10 (11716522_x_at) / RFU KIR2DL2 /// KIR2DL4 /// KIR2DL5A /// KIR2DL5B /// KIR2DS1 /// KIR2DS2 /// KIR2DS3 /// KIR2DS4 /// KIR3DL3 /// KIR3DL3 /// KIR3DS1 (11738374_at) / Fold change /veh KIR2DL2 /// KIR2DL4 /// KIR2DL5A /// KIR2DL5B /// KIR2DS1 /// KIR2DS2 /// KIR2DS3 /// KIR2DS4 /// KIR3DL3 /// KIR3DL3 /// KIR3DS1 (11738374_at) / RFU C1QL1 (11718748_at) / Fold change /veh C1QL1 (11718748_at) / RFU TMPRSS4 (11747572_a_at) / Fold change /veh TMPRSS4 (11747572_a_at) / RFU HAMP (11756126_x_at) / Fold change /veh HAMP (11756126_x_at) / RFU RNFT2 (11725882_a_at) / Fold change /veh RNFT2 (11725882_a_at) / RFU NR4A2 (11747474_a_at) / Fold change /veh NR4A2 (11747474_a_at) / RFU ABCC12 (11746883_a_at) / Fold change /veh ABCC12 (11746883_a_at) / RFU TMEM136 (11760407_x_at) / Fold change /veh TMEM136 (11760407_x_at) / RFU CLDN22 /// WWC2 (11732394_at) / Fold change /veh CLDN22 /// WWC2 (11732394_at) / RFU HLA-DPB1 (11760878_x_at) / Fold change /veh HLA-DPB1 (11760878_x_at) / RFU SPINT1 (11716480_a_at) / Fold change /veh SPINT1 (11716480_a_at) / RFU GAP43 (11754022_s_at) / Fold change /veh GAP43 (11754022_s_at) / RFU A4GNT (11735810_at) / Fold change /veh A4GNT (11735810_at) / RFU PRB3 (11715151_x_at) / Fold change /veh PRB3 (11715151_x_at) / RFU TUBB4B (11761932_at) / Fold change /veh TUBB4B (11761932_at) / RFU CAPN14 (11732068_a_at) / Fold change /veh CAPN14 (11732068_a_at) / RFU TMCC2 (11721928_a_at) / Fold change /veh TMCC2 (11721928_a_at) / RFU IRGQ (11745062_a_at) / Fold change /veh IRGQ (11745062_a_at) / RFU FAM174B (11720279_a_at) / Fold change /veh FAM174B (11720279_a_at) / RFU TMPRSS4 (11748680_a_at) / Fold change /veh TMPRSS4 (11748680_a_at) / RFU FAM212B (11763350_a_at) / Fold change /veh FAM212B (11763350_a_at) / RFU PLEKHG5 (11743358_a_at) / Fold change /veh PLEKHG5 (11743358_a_at) / RFU ZSCAN30 (11745921_a_at) / Fold change /veh ZSCAN30 (11745921_a_at) / RFU CMKLR1 (11741424_a_at) / Fold change /veh CMKLR1 (11741424_a_at) / RFU LOC101060620 /// MAPK8IP1 (11723275_at) / Fold change /veh LOC101060620 /// MAPK8IP1 (11723275_at) / RFU SPTSSB (11747773_x_at) / Fold change /veh SPTSSB (11747773_x_at) / RFU PRSS12 (11739890_at) / Fold change /veh PRSS12 (11739890_at) / RFU BIN1 (11741810_x_at) / Fold change /veh BIN1 (11741810_x_at) / RFU WNT11 (11732464_a_at) / Fold change /veh WNT11 (11732464_a_at) / RFU C10orf10 (11716521_a_at) / Fold change /veh C10orf10 (11716521_a_at) / RFU C5orf56 (11738089_at) / Fold change /veh C5orf56 (11738089_at) / RFU CYB561 (11721691_x_at) / Fold change /veh CYB561 (11721691_x_at) / RFU ANKRD19P (11752326_a_at) / Fold change /veh ANKRD19P (11752326_a_at) / RFU OR2T12 /// OR2T33 /// OR2T8 (11738714_s_at) / Fold change /veh OR2T12 /// OR2T33 /// OR2T8 (11738714_s_at) / RFU VCAN (11748164_a_at) / Fold change /veh VCAN (11748164_a_at) / RFU JSRP1 (11732532_at) / Fold change /veh JSRP1 (11732532_at) / RFU KRTAP10-11 (11738290_x_at) / Fold change /veh KRTAP10-11 (11738290_x_at) / RFU MYO3A (11730013_a_at) / Fold change /veh MYO3A (11730013_a_at) / RFU EBF3 (11725865_a_at) / Fold change /veh EBF3 (11725865_a_at) / RFU CAMK2N1 (11719241_x_at) / Fold change /veh CAMK2N1 (11719241_x_at) / RFU C5orf56 (11738088_a_at) / Fold change /veh C5orf56 (11738088_a_at) / RFU OLFML3 (11715873_a_at) / Fold change /veh OLFML3 (11715873_a_at) / RFU LOC100653217 /// NTM (11731650_a_at) / Fold change /veh LOC100653217 /// NTM (11731650_a_at) / RFU MAPK11 (11762145_a_at) / Fold change /veh MAPK11 (11762145_a_at) / RFU FIZ1 (11724087_x_at) / Fold change /veh FIZ1 (11724087_x_at) / RFU OASL (11726364_x_at) / Fold change /veh OASL (11726364_x_at) / RFU SOX15 (11748057_x_at) / Fold change /veh SOX15 (11748057_x_at) / RFU CD79A (11719716_a_at) / Fold change /veh CD79A (11719716_a_at) / RFU HIST1H1D (11736915_at) / Fold change /veh HIST1H1D (11736915_at) / RFU CASKIN2 (11723855_a_at) / Fold change /veh CASKIN2 (11723855_a_at) / RFU LOC730098 (11760151_x_at) / Fold change /veh LOC730098 (11760151_x_at) / RFU OR4N2 (11742367_at) / Fold change /veh OR4N2 (11742367_at) / RFU PRRT2 (11749266_a_at) / Fold change /veh PRRT2 (11749266_a_at) / RFU SNX32 (11753110_a_at) / Fold change /veh SNX32 (11753110_a_at) / RFU CDHR5 (11726645_a_at) / Fold change /veh CDHR5 (11726645_a_at) / RFU RCAN1 (11760418_a_at) / Fold change /veh RCAN1 (11760418_a_at) / RFU FAM167A (11723789_a_at) / Fold change /veh FAM167A (11723789_a_at) / RFU FAM26E (11764081_at) / Fold change /veh FAM26E (11764081_at) / RFU ISYNA1 (11749810_s_at) / Fold change /veh ISYNA1 (11749810_s_at) / RFU ACY1 (11761880_at) / Fold change /veh ACY1 (11761880_at) / RFU 11764098_at / Fold change /veh 11764098_at / RFU SAMD14 (11745864_x_at) / Fold change /veh SAMD14 (11745864_x_at) / RFU NPB (11741838_a_at) / Fold change /veh NPB (11741838_a_at) / RFU TMPRSS6 (11731388_a_at) / Fold change /veh TMPRSS6 (11731388_a_at) / RFU KRTAP10-2 (11738614_at) / Fold change /veh KRTAP10-2 (11738614_at) / RFU ARHGAP8 /// PRR5-ARHGAP8 (11727945_x_at) / Fold change /veh ARHGAP8 /// PRR5-ARHGAP8 (11727945_x_at) / RFU KRTAP5-7 /// NADSYN1 (11734609_at) / Fold change /veh KRTAP5-7 /// NADSYN1 (11734609_at) / RFU RASL12 (11751679_a_at) / Fold change /veh RASL12 (11751679_a_at) / RFU CDKN2B (11736163_a_at) / Fold change /veh CDKN2B (11736163_a_at) / RFU PRF1 (11729649_at) / Fold change /veh PRF1 (11729649_at) / RFU, ZNF638 /// ZNF638-IT1 / Fold change vs veh, ZNF638 /// ZNF638-IT1 / RFU, PANK3 / Fold change vs veh, PANK3 / RFU, SH3YL1 / Fold change vs veh, SH3YL1 / RFU, ZEB2 / Fold change vs veh, ZEB2 / RFU, NRIP1 / Fold change vs veh, NRIP1 / RFU, PTTG1IP / Fold change vs veh, PTTG1IP / RFU, CAPN2 / Fold change vs veh, CAPN2 / RFU, MED14 / Fold change vs veh, MED14 / RFU, SNORA58 / Fold change vs veh, SNORA58 / RFU, C1orf63 / Fold change vs veh, C1orf63 / RFU, LRRFIP1 / Fold change vs veh, LRRFIP1 / RFU, NDUFAF7 / Fold change vs veh, NDUFAF7 / RFU, SLC12A2 / Fold change vs veh, SLC12A2 / RFU, IBTK / Fold change vs veh, IBTK / RFU, ESF1 / Fold change vs veh, ESF1 / Fold change vs veh, TMEM50B / RFU, TAOK1 / Fold change vs veh, TAOK1 / RFU, ACBD3 / Fold change vs veh, ACBD3 / RFU, TMA16 / Fold change vs veh, TMA16 / RFU, RWDD3 / Fold change vs veh, RWDD3 / RFU, BCAT1 / Fold change vs veh, BCAT1 / RFU, EDEM3 / Fold change vs veh, EDEM3 / RFU, TMEM33 / Fold change vs veh, TMEM33 / RFU, WDR75 / Fold change vs veh, WDR75 / RFU, AHCTF1 / Fold change vs veh, AHCTF1 / RFU, TFRC / Fold change vs veh, TFRC / RFU, ZDHHC17 / Fold change vs veh, ZDHHC17 / RFU, NOM1 / Fold change vs veh, NOM1 / RFU, ARL8B / Fold change vs veh, ARL8B / RFU, ZBTB11 / Fold change vs veh, ZBTB11 / RFU, TAMM41 / Fold change vs veh, TAMM41 / RFU, KIAA1704 /// LOC100996395 / Fold change vs veh, KIAA1704 /// LOC100996395 / RFU, ING1 / Fold change vs veh, ING1 / RFU, TRMT61B / Fold change vs veh, TRMT61B / RFU, FUBP3 / Fold change vs veh, FUBP3 / RFU, TP53 / Fold change vs veh, TP53 / RFU, TNKS2 / Fold change vs veh, TNKS2 / RFU, ZFP14 / Fold change vs veh, ZFP14 / RFU, ACTR2 / Fold change vs veh, ACTR2 / RFU, PPP3R1 / Fold change vs veh, PPP3R1 / RFU, PIK3R1 / Fold change vs veh, PIK3R1 / RFU, HNRNPA1 / Fold change vs veh, HNRNPA1 / RFU, RNF170 / Fold change vs veh, RNF170 / RFU, ZNF28 / Fold change vs veh, ZNF28 / RFU, RNGTT / Fold change vs veh, RNGTT / RFU, OGT / Fold change vs veh, OGT / RFU, BRD1 / Fold change vs veh, BRD1 / RFU, MARS / Fold change vs veh, MARS / RFU, ZNF655 / Fold change vs veh, ZNF655 / RFU, FAHD1 / Fold change vs veh, FAHD1 / RFU, BDP1 / Fold change vs veh, BDP1 / RFU, LRRCC1 / Fold change vs veh, LRRCC1 / RFU, ARID1A / Fold change vs veh, ARID1A / RFU, ZNF146 / Fold change vs veh, ZNF146 / RFU, ZNF330 / Fold change vs veh, ZNF330 / RFU, GPN3 / Fold change vs veh, GPN3 / RFU, C9orf123 / Fold change vs veh, C9orf123 / RFU, N4BP2L2 / Fold change vs veh, N4BP2L2 / RFU, ARFIP1 / Fold change vs veh, ARFIP1 / RFU, FAM179B / Fold change vs veh, FAM179B / RFU, BCL10 / Fold change vs veh, BCL10 / RFU, UHRF1BP1L / Fold change vs veh, UHRF1BP1L / RFU, BET1 / Fold change vs veh, BET1 / RFU, CNOT2 / Fold change vs veh, CNOT2 / RFU, ZNF268 / Fold change vs veh, ZNF268 / Fold change vs veh, ZNF507 / RFU, DGCR2 / Fold change vs veh, DGCR2 / RFU, WDSUB1 / Fold change vs veh, WDSUB1 / Fold change vs veh, HSP90B1 /// MIR3652 / RFU, ADSS / Fold change vs veh, ADSS / RFU, GK / Fold change vs veh, GK / RFU, ZNF148 / Fold change vs veh, ZNF148 / RFU, TAF9 / Fold change vs veh, TAF9 / RFU, SLC1A5 / Fold change vs veh, SLC1A5 / RFU, SLMO2 / Fold change vs veh, SLMO2 / RFU, ABCC4 / Fold change vs veh, ABCC4 / RFU, LOC101060439 /// RAP1B / Fold change vs veh, LOC101060439 /// RAP1B / RFU, RFX7 / Fold change vs veh, RFX7 / RFU, GTPBP10 / Fold change vs veh, GTPBP10 / RFU, CNEP1R1 / Fold change vs veh, CNEP1R1 / RFU, BIVM-ERCC5 /// ERCC5 / Fold change vs veh, BIVM-ERCC5 /// ERCC5 / RFU, ILF3 / Fold change vs veh, ILF3 / RFU 11762660_at / Fold change /veh 11762660_at / RFU VCAN (11757783_s_at) / Fold change /veh VCAN (11757783_s_at) / RFU DDX43 (11728927_at) / Fold change /veh DDX43 (11728927_at) / RFU KRT8 (11758188_x_at) / Fold change /veh KRT8 (11758188_x_at) / RFU NKD1 (11759106_at) / Fold change /veh NKD1 (11759106_at) / RFU SRD5A1 (11742802_a_at) / Fold change /veh SRD5A1 (11742802_a_at) / RFU TPSAB1 /// TPSB2 (11721975_s_at) / Fold change /veh TPSAB1 /// TPSB2 (11721975_s_at) / RFU GSTM3 (11746129_a_at) / Fold change /veh GSTM3 (11746129_a_at) / RFU IL23R (11737362_x_at) / Fold change /veh IL23R (11737362_x_at) / RFU TMEM51 (11727254_a_at) / Fold change /veh TMEM51 (11727254_a_at) / RFU PIWIL2 (11732686_x_at) / Fold change /veh PIWIL2 (11732686_x_at) / RFU ORM1 (11744905_x_at) / Fold change /veh ORM1 (11744905_x_at) / RFU CCDC152 (11743942_at) / Fold change /veh CCDC152 (11743942_at) / RFU ECM1 (11717891_a_at) / Fold change /veh ECM1 (11717891_a_at) / RFU IL23R (11748794_a_at) / Fold change /veh IL23R (11748794_a_at) / RFU TNFAIP8L3 (11732012_x_at) / Fold change /veh TNFAIP8L3 (11732012_x_at) / RFU MBOAT4 (11741988_at) / Fold change /veh MBOAT4 (11741988_at) / RFU 11764193_at / Fold change /veh 11764193_at / RFU TMEM53 (11763286_at) / Fold change /veh TMEM53 (11763286_at) / RFU MAGEB2 (11727129_at) / Fold change /veh MAGEB2 (11727129_at) / RFU TMEM200A (11744735_a_at) / Fold change /veh TMEM200A (11744735_a_at) / RFU CCDC152 (11751479_a_at) / Fold change /veh CCDC152 (11751479_a_at) / RFU FAM211A (11726209_a_at) / Fold change /veh FAM211A (11726209_a_at) / RFU RGS16 (11746705_a_at) / Fold change /veh RGS16 (11746705_a_at) / RFU VCAN (11755009_s_at) / Fold change /veh VCAN (11755009_s_at) / RFU RHOB (11743442_s_at) / Fold change /veh RHOB (11743442_s_at) / RFU RGS16 (11720943_a_at) / Fold change /veh RGS16 (11720943_a_at) / RFU RGS16 (11720944_at) / Fold change /veh RGS16 (11720944_at) / RFU, VPS4B / Fold change vs veh, VPS4B / RFU, CREB1 / Fold change vs veh, CREB1 / RFU, DNAJC13 / Fold change vs veh, DNAJC13 / RFU, GNAQ / Fold change vs veh, GNAQ / RFU, CDK5R1 / Fold change vs veh, CDK5R1 / RFU, ZRANB3 / Fold change vs veh, ZRANB3 / RFU, CUL4A / Fold change vs veh, CUL4A / RFU, CCNY / Fold change vs veh, CCNY / RFU, UFL1 / Fold change vs veh, UFL1 / RFU, COG3 / Fold change vs veh, COG3 / RFU, DIAPH2 / Fold change vs veh, DIAPH2 / RFU, SKA2 / Fold change vs veh, SKA2 / RFU, AFF3 / Fold change vs veh, AFF3 / RFU, LMF1 / Fold change vs veh, LMF1 / RFU, IPO11 / Fold change vs veh, IPO11 / RFU, DFFB / Fold change vs veh, DFFB / RFU, FOXP1 / Fold change vs veh, FOXP1 / RFU, CARD8 / Fold change vs veh, CARD8 / RFU, STRN3 / Fold change vs veh, STRN3 / RFU, ADK / Fold change vs veh, ADK / RFU, RASSF2 / Fold change vs veh, RASSF2 / RFU, WIPF1 / Fold change vs veh, WIPF1 / RFU, LARP1B / Fold change vs veh, LARP1B / RFU, RASA1 / Fold change vs veh, RASA1 / RFU, RB1 / Fold change vs veh, RB1 / RFU, PPFIA1 / Fold change vs veh, PPFIA1 / RFU, MAT2A / Fold change vs veh, MAT2A / RFU, CCT5 / Fold change vs veh, CCT5 / RFU, WDR92 / Fold change vs veh, WDR92 / RFU, CUX1 / Fold change vs veh, CUX1 / RFU, TTC7A / Fold change vs veh, TTC7A / RFU, TMEM135 / Fold change vs veh, TMEM135 / RFU, DEPTOR / Fold change vs veh, DEPTOR / RFU, CPM / Fold change vs veh, CPM / RFU, DNAJB6 / Fold change vs veh, DNAJB6 / RFU, CACNA2D3 / Fold change vs veh, CACNA2D3 / RFU, DTX4 / Fold change vs veh, DTX4 / RFU, TFCP2 / Fold change vs veh, TFCP2 / RFU, GMCL1 /// GMCL1P1 / Fold change vs veh, GMCL1 /// GMCL1P1 / RFU, AEBP2 / Fold change vs veh, AEBP2 / RFU, SNHG1 /// SNORD22 /// SNORD25 /// SNORD26 /// SNORD27 /// SNORD28 /// SNORD29 /// SNORD31 / Fold change vs veh, SNHG1 /// SNORD22 /// SNORD25 /// SNORD26 /// SNORD27 /// SNORD28 /// SNORD29 /// SNORD31 / Fold change (Aza/veh), C12orf56 (ProbeSet 11735607_a_at) / Fold change (ACY-1035/veh), C12orf56 (ProbeSet 11735607_a_at) / Fold change (Aza/veh), FGFR1OP (ProbeSet 11751329_s_at) / Fold change (ACY-1035/veh), FGFR1OP (ProbeSet 11751329_s_at) / Fold change (Aza/veh), VPS36 (ProbeSet 11739960_a_at) / Fold change (ACY-1035/veh), VPS36 (ProbeSet 11739960_a_at) / RFU SYPL1 (11715823_x_at) / Fold change /veh SYPL1 (11715823_x_at) / RFU IGFBP7 (11715501_s_at) / Fold change /veh IGFBP7 (11715501_s_at) / RFU REEP3 (11722064_at) / Fold change /veh REEP3 (11722064_at) / RFU IGLL1 (11728026_x_at) / Fold change /veh IGLL1 (11728026_x_at): dose or concentration left out as unconfirmed
Conditions: ProbeSet 11732277_a_at; LIST D

Question: For `Nc1ncn([C@@H]2O[C@H](CO)[C@@H](O)[C@H]2O)c(=O)n1` [azacitidine], which “Fold change vs veh, FOXP1” value is on record?
Answer: Its value is 0.59.
